Assay: xn = mol fraction of the nth substance listed
Details: 101 kPa

CC[n+]1ccn(C)c1.N#C[N-]C#N + O
electrical conductivity [S/m]
Details | x2 = 0.2 | x2 = 0.4 | x2 = 0.6 | x2 = 0.8
293.2 K | 2.72 | 3.47 | – | –
298.2 K | 3.09 | 3.91 | 5.06 | 6.41
303.2 K | 3.48 | 4.4 | 5.7 | 7.2
308.2 K | – | 4.91 | – | 8
313.2 K | – | 5.43 | 7.03 | –
318.2 K | – | 5.97 | 7.73 | 9.63
323.2 K | 5.25 | 6.52 | 8.42 | 10.5
328.2 K | – | 7.08 | 9.14 | 11.4
333.2 K | 6.22 | 7.65 | 9.85 | 12.2
338.2 K | 6.71 | – | – | 13.1
343.2 K | 7.26 | 8.81 | 11.3 | 13.9
348.2 K | 7.79 | 9.42 | 12 | 14.8
353.2 K | 8.36 | 10 | 12.7 | 15.6

CCn1cc[n+](C)c1.COCCOCCOS(=O)(=O)[O-] + O
electrical conductivity [S/m]
Details | x2 = 0.2 | x2 = 0.4 | x2 = 0.6 | x2 = 0.8
293.2 K | 0.19 | 0.24 | 0.42 | 0.82
298.2 K | 0.23 | – | – | 0.99
303.2 K | 0.3 | 0.38 | 0.63 | 1.18
308.2 K | 0.38 | 0.47 | 0.76 | 1.4
313.2 K | – | 0.57 | 0.9 | –
318.2 K | 0.56 | 0.68 | 1.06 | 1.87
323.2 K | 0.67 | 0.79 | 1.22 | 2.12
328.2 K | 0.79 | – | 1.4 | 2.39
333.2 K | 0.92 | 1.06 | 1.58 | 2.68
338.2 K | – | 1.2 | – | –
343.2 K | 1.2 | 1.35 | 1.96 | –
348.2 K | – | – | 2.17 | 3.59
353.2 K | 1.51 | 1.68 | – | –
